Assay [1] has as its system rats. Put plainly: Conditioned place preference. It counts as in vivo, rat. As to conditions: morphine 1 mg/kg s.c.; for mean change from baseline (time in drug-paired compartment): rats.
Assay [2] relates to rats. The following applies: rat, in vivo.

Counter-ions that a name gives are not always drawn.

For `CN1CC[C@]23c4c5ccc(O)c4O[C@H]2[C@@H](O)C=C[C@H]3[C@H]1C5` [Morphine, Morphine sulfate], the place preference result in the assay on rats [1] (vs saline, two-way ANOVA p = 0.0013) is recorded as “significant place preference”. The “mean change from baseline (time in drug-paired compartment)” value with rats [1] (test session one) is on record as “+83.4 sec”; in the assay on rats [1] (test session two), “+96.62 sec”. In the assay with rats [2], the “responding (drug infusions) vs saline” value is on record as “significantly greater responding than saline”.
